Assay results: PubChem BioAssay (NCI)
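Five compound concentrations were applied to cells in 96-well plates for 48 hours; endpoints were derived by simple linear interpolation of the resulting dose-response curve. TGI marks complete inhibition of growth.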

System: HCT-116 colon
Assay: inhibition of tumour cell growth, NCI panel, 48 h

SMILES | TGI
CC(=O)OC(OC(C)=O)c1ccc2ccc3cccc4ccc1c2c34 | 52.4 µM

System: UO-31 renal
Assay: inhibition of tumour cell growth, NCI panel, 48 h

SMILES | TGI
O=C1C=CC(=O)c2c1ccc1c3ccccc3n(CCCCCn3c4ccccc4c4ccc5c(c43)C(=O)C=CC5=O)c21 | 16.4 µM
Cc1ccc(/C=N/Nc2cc(C)c3cccc(C)c3n2)s1 | 38.7 µM
O=C1C2SC34c5c2c2ccccc2n5CCC3CCCN14 (centres undefined) | > 100 µM
CC(=O)Nc1sc(Br)cc1S(=O)(=O)c1ccc(Cl)cc1 | 83.1 µM
O=C(/C=C/c1ccccc1)Oc1cccc(O)c1 | > 100 µM
O=C1c2ccccc2C(=O)c2c(NCC(O)CO)ccc(NCC(O)CO)c21 (centres undefined) | 71.2 µM
COc1cccc(C(=O)Oc2ccc(OS(=O)(=O)c3ccc(C)cc3)cc2)c1C#N | > 100 µM
CC1(C)/C(=N\NC(N)=O)C2CCC1C2 (centres undefined) | > 100 µM
O=C1/C(=C/c2ccc(Br)s2)NC(=S)N1c1ccccc1 | > 100 µM
Fc1ccc2c(c1)nc1n2C(c2c(Cl)cccc2Cl)SC1 (centres undefined) | 28.7 µM
CC(C)C1=CC23CCC4C(C)(C(=O)O)CCCC4(C)C2CC1C1C(=O)N(c2ccc(Cc4ccc(N5C(=O)C6C7CC8C9(C)CCCC(C)(C(=O)O)C9CCC8(C=C7C(C)C)C6C5=O)cc4)cc2)C(=O)C13 (centres undefined) | 31.3 µM
O=C(Nc1ccccc1)c1cc(S(=O)(=O)NC2=NC(c3ccccc3)c3cc(Cl)ccc3N2)c(SSc2cc(Cl)c(C(=O)Nc3ccccc3)cc2S(=O)(=O)NC2=NC(c3ccccc3)c3cc(Cl)ccc3N2)cc1Cl (centres undefined) | > 100 µM
CCOC(=O)Nc1[nH]cc(-c2ccccc2)c1C#N | > 100 µM
COC(=O)c1c(O)ccc2c1c1c(n2Cc2cc(OC)cc(OC)c2)C(=O)c2ccccc2C1 | > 100 µM
O=C1Nc2cccc(Cl)c2/C1=C\c1c(Cl)nc2n1CCS2 | > 100 µM
O=C(N/N=C(\c1ccccc1)c1ccccn1)NC1CCCCC1 | > 100 µM
NC(N)=NCCN1CC2CCC(CC2)C1 | > 100 µM
COc1cc(Nc2nc3ccccc3nc2C(=O)O)cc(OC)c1OC | > 100 µM
COC(=O)c1ccc(/C=C/c2cc(O)ccc2O)cc1 | 3.67 µM
Cc1c(C)c2c(c(N)c1C#N)C(=O)N(NC(=O)c1ccccc1)C2=O | > 100 µM
CC(=O)OC(OC(C)=O)c1ccc2ccc3cccc4ccc1c2c34 | 44.6 µM

System: UACC-257 melanoma
Assay: inhibition of tumour cell growth, NCI panel, 48 h

SMILES | TGI
O=C1C=CC(=O)c2c1ccc1c3ccccc3n(CCCCCn3c4ccccc4c4ccc5c(c43)C(=O)C=CC5=O)c21 | 39.5 µM
Cc1ccc(/C=N/Nc2cc(C)c3cccc(C)c3n2)s1 | 58.9 µM
O=C1C2SC34c5c2c2ccccc2n5CCC3CCCN14 (centres undefined) | 95.5 µM
CC(=O)N(C(C)=O)c1ncc(-n2nc(-c3ccccc3)cc2-c2ccccc2)c(-c2ccccc2)n1 | > 10 µM
CC(=O)Nc1sc(Br)cc1S(=O)(=O)c1ccc(Cl)cc1 | > 100 µM
O=C1Sc2cc3ccccc3cc2C(=O)Sc2ccc(Br)cc21 | 17.6 µM
O=C(/C=C/c1ccccc1)Oc1cccc(O)c1 | > 100 µM
O=C1c2ccccc2C(=O)c2c(NCC(O)CO)ccc(NCC(O)CO)c21 (centres undefined) | > 100 µM
COc1cccc(C(=O)Oc2ccc(OS(=O)(=O)c3ccc(C)cc3)cc2)c1C#N | 96.6 µM
CC1(C)/C(=N\NC(N)=O)C2CCC1C2 (centres undefined) | > 100 µM
C/C=C/C(CC(O)(C(F)(F)F)C(F)(F)F)=N/NC(N)=S | > 10 µM
O=C1/C(=C/c2ccc(Br)s2)NC(=S)N1c1ccccc1 | > 100 µM
Fc1ccc2c(c1)nc1n2C(c2c(Cl)cccc2Cl)SC1 (centres undefined) | 34.3 µM
O=C(Nc1ccccc1)c1cc(S(=O)(=O)NC2=NC(c3ccccc3)c3cc(Cl)ccc3N2)c(SSc2cc(Cl)c(C(=O)Nc3ccccc3)cc2S(=O)(=O)NC2=NC(c3ccccc3)c3cc(Cl)ccc3N2)cc1Cl (centres undefined) | > 100 µM
COc1ccc(C2SC(N)=Nc3c2c(C)nn3C(=O)c2ccncc2)cc1OC (centres undefined) | > 10 µM
COC(=O)c1c(O)ccc2c1c1c(n2Cc2cc(OC)cc(OC)c2)C(=O)c2ccccc2C1 | > 100 µM
O=C1Nc2cccc(Cl)c2/C1=C\c1c(Cl)nc2n1CCS2 | > 100 µM
O=C(N/N=C(\c1ccccc1)c1ccccn1)NC1CCCCC1 | > 100 µM
C=CCc1cccc2cc(C(=O)NCc3ccccc3)c(=N)oc12 | > 100 µM
NC(N)=NCCN1CC2CCC(CC2)C1 | > 100 µM
COc1cc(Nc2nc3ccccc3nc2C(=O)O)cc(OC)c1OC | > 100 µM
COC(=O)c1ccc(/C=C/c2cc(O)ccc2O)cc1 | 22.5 µM
Cc1c(C)c2c(c(N)c1C#N)C(=O)N(NC(=O)c1ccccc1)C2=O | > 100 µM
CC(=O)OC(OC(C)=O)c1ccc2ccc3cccc4ccc1c2c34 | 34.5 µM

System: DU-145 prostate
Assay: inhibition of tumour cell growth, NCI panel, 48 h

SMILES | TGI
O=C1C=CC(=O)c2c1ccc1c3ccccc3n(CCCCCn3c4ccccc4c4ccc5c(c43)C(=O)C=CC5=O)c21 | > 100 µM
Cc1ccc(/C=N/Nc2cc(C)c3cccc(C)c3n2)s1 | > 100 µM
O=C1C2SC34c5c2c2ccccc2n5CCC3CCCN14 (centres undefined) | > 100 µM
CC(=O)N(C(C)=O)c1ncc(-n2nc(-c3ccccc3)cc2-c2ccccc2)c(-c2ccccc2)n1 | > 10 µM
CC(=O)Nc1sc(Br)cc1S(=O)(=O)c1ccc(Cl)cc1 | > 100 µM
O=C1Sc2cc3ccccc3cc2C(=O)Sc2ccc(Br)cc21 | 16.9 µM
O=C(/C=C/c1ccccc1)Oc1cccc(O)c1 | > 100 µM
O=C1c2ccccc2C(=O)c2c(NCC(O)CO)ccc(NCC(O)CO)c21 (centres undefined) | > 100 µM
COc1cccc(C(=O)Oc2ccc(OS(=O)(=O)c3ccc(C)cc3)cc2)c1C#N | > 100 µM
CC1(C)/C(=N\NC(N)=O)C2CCC1C2 (centres undefined) | > 100 µM
C/C=C/C(CC(O)(C(F)(F)F)C(F)(F)F)=N/NC(N)=S | > 10 µM
O=C1/C(=C/c2ccc(Br)s2)NC(=S)N1c1ccccc1 | > 100 µM
Fc1ccc2c(c1)nc1n2C(c2c(Cl)cccc2Cl)SC1 (centres undefined) | 30.6 µM
CC(C)C1=CC23CCC4C(C)(C(=O)O)CCCC4(C)C2CC1C1C(=O)N(c2ccc(Cc4ccc(N5C(=O)C6C7CC8C9(C)CCCC(C)(C(=O)O)C9CCC8(C=C7C(C)C)C6C5=O)cc4)cc2)C(=O)C13 (centres undefined) | 25.3 µM
O=C(Nc1ccccc1)c1cc(S(=O)(=O)NC2=NC(c3ccccc3)c3cc(Cl)ccc3N2)c(SSc2cc(Cl)c(C(=O)Nc3ccccc3)cc2S(=O)(=O)NC2=NC(c3ccccc3)c3cc(Cl)ccc3N2)cc1Cl (centres undefined) | > 100 µM
CCOC(=O)Nc1[nH]cc(-c2ccccc2)c1C#N | > 100 µM
COc1ccc(C2SC(N)=Nc3c2c(C)nn3C(=O)c2ccncc2)cc1OC (centres undefined) | > 10 µM
COC(=O)c1c(O)ccc2c1c1c(n2Cc2cc(OC)cc(OC)c2)C(=O)c2ccccc2C1 | > 100 µM
O=C1Nc2cccc(Cl)c2/C1=C\c1c(Cl)nc2n1CCS2 | > 100 µM
O=C(N/N=C(\c1ccccc1)c1ccccn1)NC1CCCCC1 | > 100 µM
C=CCc1cccc2cc(C(=O)NCc3ccccc3)c(=N)oc12 | > 100 µM
NC(N)=NCCN1CC2CCC(CC2)C1 | > 100 µM
COc1cc(Nc2nc3ccccc3nc2C(=O)O)cc(OC)c1OC | > 100 µM
COC(=O)c1ccc(/C=C/c2cc(O)ccc2O)cc1 | > 100 µM
Cc1c(C)c2c(c(N)c1C#N)C(=O)N(NC(=O)c1ccccc1)C2=O | > 100 µM
CC(=O)OC(OC(C)=O)c1ccc2ccc3cccc4ccc1c2c34 | 45.8 µM

System: SR leukemia
Assay: inhibition of tumour cell growth, NCI panel, 48 h

SMILES | TGI
O=C1C=CC(=O)c2c1ccc1c3ccccc3n(CCCCCn3c4ccccc4c4ccc5c(c43)C(=O)C=CC5=O)c21 | 6.22 µM
Cc1ccc(/C=N/Nc2cc(C)c3cccc(C)c3n2)s1 | > 100 µM
O=C1C2SC34c5c2c2ccccc2n5CCC3CCCN14 (centres undefined) | > 100 µM
CC(=O)N(C(C)=O)c1ncc(-n2nc(-c3ccccc3)cc2-c2ccccc2)c(-c2ccccc2)n1 | > 10 µM
CC(=O)Nc1sc(Br)cc1S(=O)(=O)c1ccc(Cl)cc1 | 50.5 µM
O=C1Sc2cc3ccccc3cc2C(=O)Sc2ccc(Br)cc21 | 9.14 µM
O=C(/C=C/c1ccccc1)Oc1cccc(O)c1 | 48.6 µM
O=C1c2ccccc2C(=O)c2c(NCC(O)CO)ccc(NCC(O)CO)c21 (centres undefined) | > 100 µM
COc1cccc(C(=O)Oc2ccc(OS(=O)(=O)c3ccc(C)cc3)cc2)c1C#N | > 100 µM
CC1(C)/C(=N\NC(N)=O)C2CCC1C2 (centres undefined) | > 100 µM
C/C=C/C(CC(O)(C(F)(F)F)C(F)(F)F)=N/NC(N)=S | > 10 µM
O=C1/C(=C/c2ccc(Br)s2)NC(=S)N1c1ccccc1 | > 100 µM
Fc1ccc2c(c1)nc1n2C(c2c(Cl)cccc2Cl)SC1 (centres undefined) | > 100 µM
CC(C)C1=CC23CCC4C(C)(C(=O)O)CCCC4(C)C2CC1C1C(=O)N(c2ccc(Cc4ccc(N5C(=O)C6C7CC8C9(C)CCCC(C)(C(=O)O)C9CCC8(C=C7C(C)C)C6C5=O)cc4)cc2)C(=O)C13 (centres undefined) | 28 µM
O=C(Nc1ccccc1)c1cc(S(=O)(=O)NC2=NC(c3ccccc3)c3cc(Cl)ccc3N2)c(SSc2cc(Cl)c(C(=O)Nc3ccccc3)cc2S(=O)(=O)NC2=NC(c3ccccc3)c3cc(Cl)ccc3N2)cc1Cl (centres undefined) | > 26.7 µM
CCOC(=O)Nc1[nH]cc(-c2ccccc2)c1C#N | > 100 µM
COc1ccc(C2SC(N)=Nc3c2c(C)nn3C(=O)c2ccncc2)cc1OC (centres undefined) | > 10 µM
COC(=O)c1c(O)ccc2c1c1c(n2Cc2cc(OC)cc(OC)c2)C(=O)c2ccccc2C1 | > 100 µM
O=C1Nc2cccc(Cl)c2/C1=C\c1c(Cl)nc2n1CCS2 | > 100 µM
O=C(N/N=C(\c1ccccc1)c1ccccn1)NC1CCCCC1 | > 100 µM
C=CCc1cccc2cc(C(=O)NCc3ccccc3)c(=N)oc12 | > 100 µM
NC(N)=NCCN1CC2CCC(CC2)C1 | > 100 µM
COc1cc(Nc2nc3ccccc3nc2C(=O)O)cc(OC)c1OC | > 100 µM
COC(=O)c1ccc(/C=C/c2cc(O)ccc2O)cc1 | 3.69 µM
Cc1c(C)c2c(c(N)c1C#N)C(=O)N(NC(=O)c1ccccc1)C2=O | > 100 µM
CC(=O)OC(OC(C)=O)c1ccc2ccc3cccc4ccc1c2c34 | > 100 µM

System: LOX IMVI melanoma
Assay: inhibition of tumour cell growth, NCI panel, 48 h

SMILES | TGI
O=C1C=CC(=O)c2c1ccc1c3ccccc3n(CCCCCn3c4ccccc4c4ccc5c(c43)C(=O)C=CC5=O)c21 | 35 µM
Cc1ccc(/C=N/Nc2cc(C)c3cccc(C)c3n2)s1 | 4.3 µM
O=C1C2SC34c5c2c2ccccc2n5CCC3CCCN14 (centres undefined) | > 100 µM
CC(=O)N(C(C)=O)c1ncc(-n2nc(-c3ccccc3)cc2-c2ccccc2)c(-c2ccccc2)n1 | > 10 µM
O=C1Sc2cc3ccccc3cc2C(=O)Sc2ccc(Br)cc21 | 3.97 µM
O=C(/C=C/c1ccccc1)Oc1cccc(O)c1 | > 100 µM
O=C1c2ccccc2C(=O)c2c(NCC(O)CO)ccc(NCC(O)CO)c21 (centres undefined) | > 100 µM
COc1cccc(C(=O)Oc2ccc(OS(=O)(=O)c3ccc(C)cc3)cc2)c1C#N | > 100 µM
CC1(C)/C(=N\NC(N)=O)C2CCC1C2 (centres undefined) | > 100 µM
C/C=C/C(CC(O)(C(F)(F)F)C(F)(F)F)=N/NC(N)=S | > 10 µM
O=C1/C(=C/c2ccc(Br)s2)NC(=S)N1c1ccccc1 | > 100 µM
Fc1ccc2c(c1)nc1n2C(c2c(Cl)cccc2Cl)SC1 (centres undefined) | 28.2 µM
O=C(Nc1ccccc1)c1cc(S(=O)(=O)NC2=NC(c3ccccc3)c3cc(Cl)ccc3N2)c(SSc2cc(Cl)c(C(=O)Nc3ccccc3)cc2S(=O)(=O)NC2=NC(c3ccccc3)c3cc(Cl)ccc3N2)cc1Cl (centres undefined) | > 100 µM
CCOC(=O)Nc1[nH]cc(-c2ccccc2)c1C#N | > 100 µM
COc1ccc(C2SC(N)=Nc3c2c(C)nn3C(=O)c2ccncc2)cc1OC (centres undefined) | > 10 µM
COC(=O)c1c(O)ccc2c1c1c(n2Cc2cc(OC)cc(OC)c2)C(=O)c2ccccc2C1 | > 100 µM
